Measurements: patent US10039759B2, “Quinolines as FGFR kinase modulators” (priority 2011, dated 2018)
Where two headings read alike, the source gives them in different places.

Tests used:
[1] = target: FGFR2 (h) (Homo sapiens, UniProt P21802); assay: FGFR2 (enzymatic assay), TR-FRET; format: biochemical; conditions: 60 min, pIC50 = -log IC50 (M), average if tested multiple times
[2] = target: FGFR4 (h) (Homo sapiens, UniProt P22455); assay: FGFR4 (enzymatic assay), TR-FRET; format: biochemical; conditions: FGFR 4 pIC50, 5 μM ATP, 60 min; pIC50 = -log IC50 (M); average if tested multiple times
[3] = target: FGFR3 (h) (Homo sapiens, UniProt P22607); assay: FGFR3 (enzymatic assay), TR-FRET; format: biochemical; conditions: 60 min, pIC50 = -log IC50 (M), average if tested multiple times
[4] = target: KDR (h) (Homo sapiens, UniProt P35968); assay: KDR (VEGFR2) (enzymatic assay), TR-FRET; format: biochemical; conditions: 120 min, pIC50 = -log IC50 (M), average if tested multiple times
Experimental: KDR (VEGFR2) (Enzymatic Assay)
In a final reaction volume of 30 μL, KDR (h) (150 ng/ml) was incubated with 50 mM HEPES pH 7.5, 6 mM MnCl2, 1 mM DTT, 0.1 mM Na3VO4, 0.01% Triton-X-100, 500 nM Btn-Flt3 and 3 μM ATP in the presence of compound (1% DMSO final). After incubation for 120 minutes at room temperature the reaction was stopped with 2.27 nM EU-anti P-Tyr, 7 mM EDTA, 31.25 nM SA-XL-665 and 0.02% BSA which was present for 60 minutes at room temperature. Time-Resolved Fluorescence Resonance Energy Transfer (TR-FRET) signal (ex340 nm. Em 620 nm, em 655 nm) was measured afterwards and results are expressed in RFU (Relative Fluorescence Units). In this assay, the inhibitory effect of different compound concentrations (range 10 μM to 0.1 nM) was determined and used to calculate an IC50 (M) and pIC50 (−log IC50) value.

[5] = target: T1, Ba/F3-FGFR3-transfected cells (Homo sapiens, UniProt P22607, cells depend on it, form not given); assay: Ba/F3-FGFR3 (minus IL3 or plus IL3) cellular proliferation assay, Alamar Blue; format: cell-based; conditions: minus IL3; 24 hours, Alamar Blue
T1 construct: BAF3-FGFR3 (MIN IL3 Alamar Blue- pIC50); other: minus IL3; 24 hours, Alamar Blue
Experimental: (§1) Ba/F3-FGFR3 (Minus IL3 or Plus IL3) (Cellular Proliferation Assay)
(§2) In a 384 well plate, 100 nl of compound dilution in DMSO was sprayed before adding 50 μl cell culture medium (phenol red free RPMI-1640, 10% FBS, 2 mM L-Glutamine and 50 μg/ml Gentamycin) containing 20000 cells per well of Ba/F3-FGFR3-transfected cells. Cells were put in an incubator at 37° C. and 5% CO2. After 24 hours, 10 μl of Alamar Blue solution (0.5 mM K3Fe(CN)6, 0.5 mM K4Fe(CN)6, 0.15 mM Resazurin and 100 mM Phosphate Buffer) was added to the wells, incubated for 4 hours at 37° C. and 5% CO2 before RFU's (Relative Fluorescence Units) (ex. 540 nm., em. 590 nm.) were measured in a fluorescence plate reader.
(§3) In this assay, the inhibitory effect of different compound concentrations (range 10 μM to 0.1 nM) was determined and used to calculate an IC50 (M) and pIC50 (−log IC50) value. As a counterscreen the same experiment was performed in the presence of 10 ng/ml murine IL3.

[6] = target: T2, Ba/F3-FGFR1-transfected cells (Homo sapiens, UniProt P11362, cells depend on it, form not given); assay: Ba/F3-FGFR1 (minus IL3 or plus IL3) cellular proliferation assay, Alamar Blue; format: cell-based; conditions: minus IL3, 24 hours
T2 construct: other: minus IL3; 24 hours, Alamar Blue
Experimental: Ba/F3-FGFR1 (Minus IL3 or Plus IL3) (Cellular Proliferation Assay)
as §2, with “Ba/F3-FGFR1-transfected” for “Ba/F3-FGFR3-transfected”
as §3

[7] = target: T3, Ba/F3-KDR-transfected cells (Homo sapiens, UniProt P35968, cells depend on it, form not given); assay: Ba/F3-KDR (minus IL3 or plus IL3) cellular proliferation assay, Alamar Blue; format: cell-based; conditions: minus IL3; 24 hours, Alamar Blue
T3 construct: BAF3-KDR (MIN IL3 Alamar Blue pIC50); other: minus IL3; 24 hours, Alamar Blue
Experimental: (§4) Ba/F3-KDR (Minus IL3 or Plus IL3) (Cellular Proliferation Assay)
as §2, with “Ba/F3-KDR-transfected” for “Ba/F3-FGFR3-transfected”
as §3

[8] = target: FGFR1 (h) (Homo sapiens, UniProt P11362); assay: FGFR1 (enzymatic assay), TR-FRET; format: biochemical; conditions: FGFR 1 pIC50, 5 μM ATP, 60 min; pIC50 = -log IC50 (M); average if tested multiple times
[9] = target: Ba/F3-FGFR4-transfected cells (Homo sapiens, UniProt P22455); assay: Ba/F3-FGFR4 cellular proliferation assay, Alamar Blue; format: cell-based; conditions: 24 hours
Experimental: Ba/F3-FGFR4 (Cellular Proliferation Assay)
as §2, with “Ba/F3-FGFR4-transfected” for “Ba/F3-FGFR3-transfected”
In this assay, the inhibitory effect of different compound concentrations (range 10 μM to 0.1 nM) was determined and used to calculate an IC50 (M) and pIC50 (−log IC50) value.

[10] = tested on: Ba/F3-FGFR3-transfected cells; assay: Ba/F3-FGFR3 (minus IL3 or plus IL3) cellular proliferation assay, Alamar Blue; format: cell-based; conditions: plus IL3 (10 ng/ml murine IL3, counterscreen); 24 hours, Alamar Blue; read-out: BAF3-FGFR3 (PLUS IL3 Alamar Blue pIC50) (converted)
Experimental: as §1, §2, §3

[11] = tested on: Ba/F3-KDR-transfected cells; assay: Ba/F3-KDR (minus IL3 or plus IL3) cellular proliferation assay, Alamar Blue; format: cell-based; conditions: plus IL3 (10 ng/ml murine IL3, counterscreen); 24 hours, Alamar Blue; read-out: BAF3-KDR (PLUS IL3 Alamar Blue pIC50) (converted)
Experimental: as §4
as §2, with “Ba/F3-KDR-transfected” for “Ba/F3-FGFR3-transfected”
as §3

[12] = 0.4 μM ATP, read-out: FGFR 2 pIC50 (converted)
[13] = 25 μM ATP, read-out: hFGFR 3 pIC50 (converted)
[14] = 3 μM ATP, read-out: VEGFR KDR pIC50 (converted)

Sequence of FGFR1 (h) (P11362 22-822): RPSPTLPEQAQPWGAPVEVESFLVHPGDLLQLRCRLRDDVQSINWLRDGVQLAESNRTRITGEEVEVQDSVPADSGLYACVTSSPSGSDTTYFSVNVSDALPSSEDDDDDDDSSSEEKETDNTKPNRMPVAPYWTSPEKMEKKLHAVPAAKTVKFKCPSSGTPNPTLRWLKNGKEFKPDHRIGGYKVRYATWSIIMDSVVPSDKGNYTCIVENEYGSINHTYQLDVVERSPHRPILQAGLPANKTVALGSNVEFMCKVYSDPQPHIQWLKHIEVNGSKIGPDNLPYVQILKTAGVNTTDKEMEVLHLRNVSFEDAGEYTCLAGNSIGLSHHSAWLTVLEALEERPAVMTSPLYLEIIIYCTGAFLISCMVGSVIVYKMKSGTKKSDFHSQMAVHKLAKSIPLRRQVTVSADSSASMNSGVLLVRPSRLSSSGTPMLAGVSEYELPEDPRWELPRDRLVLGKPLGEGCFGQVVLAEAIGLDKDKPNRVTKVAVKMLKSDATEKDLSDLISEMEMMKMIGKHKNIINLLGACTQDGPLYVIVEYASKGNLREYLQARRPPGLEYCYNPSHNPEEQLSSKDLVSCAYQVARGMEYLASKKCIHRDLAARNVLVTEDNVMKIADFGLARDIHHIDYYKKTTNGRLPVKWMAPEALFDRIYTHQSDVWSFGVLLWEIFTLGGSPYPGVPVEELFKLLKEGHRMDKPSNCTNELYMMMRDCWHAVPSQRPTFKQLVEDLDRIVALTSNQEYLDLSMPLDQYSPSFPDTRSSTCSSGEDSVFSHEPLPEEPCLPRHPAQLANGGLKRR
T3 sequence (P35968 whole entry, change not shown): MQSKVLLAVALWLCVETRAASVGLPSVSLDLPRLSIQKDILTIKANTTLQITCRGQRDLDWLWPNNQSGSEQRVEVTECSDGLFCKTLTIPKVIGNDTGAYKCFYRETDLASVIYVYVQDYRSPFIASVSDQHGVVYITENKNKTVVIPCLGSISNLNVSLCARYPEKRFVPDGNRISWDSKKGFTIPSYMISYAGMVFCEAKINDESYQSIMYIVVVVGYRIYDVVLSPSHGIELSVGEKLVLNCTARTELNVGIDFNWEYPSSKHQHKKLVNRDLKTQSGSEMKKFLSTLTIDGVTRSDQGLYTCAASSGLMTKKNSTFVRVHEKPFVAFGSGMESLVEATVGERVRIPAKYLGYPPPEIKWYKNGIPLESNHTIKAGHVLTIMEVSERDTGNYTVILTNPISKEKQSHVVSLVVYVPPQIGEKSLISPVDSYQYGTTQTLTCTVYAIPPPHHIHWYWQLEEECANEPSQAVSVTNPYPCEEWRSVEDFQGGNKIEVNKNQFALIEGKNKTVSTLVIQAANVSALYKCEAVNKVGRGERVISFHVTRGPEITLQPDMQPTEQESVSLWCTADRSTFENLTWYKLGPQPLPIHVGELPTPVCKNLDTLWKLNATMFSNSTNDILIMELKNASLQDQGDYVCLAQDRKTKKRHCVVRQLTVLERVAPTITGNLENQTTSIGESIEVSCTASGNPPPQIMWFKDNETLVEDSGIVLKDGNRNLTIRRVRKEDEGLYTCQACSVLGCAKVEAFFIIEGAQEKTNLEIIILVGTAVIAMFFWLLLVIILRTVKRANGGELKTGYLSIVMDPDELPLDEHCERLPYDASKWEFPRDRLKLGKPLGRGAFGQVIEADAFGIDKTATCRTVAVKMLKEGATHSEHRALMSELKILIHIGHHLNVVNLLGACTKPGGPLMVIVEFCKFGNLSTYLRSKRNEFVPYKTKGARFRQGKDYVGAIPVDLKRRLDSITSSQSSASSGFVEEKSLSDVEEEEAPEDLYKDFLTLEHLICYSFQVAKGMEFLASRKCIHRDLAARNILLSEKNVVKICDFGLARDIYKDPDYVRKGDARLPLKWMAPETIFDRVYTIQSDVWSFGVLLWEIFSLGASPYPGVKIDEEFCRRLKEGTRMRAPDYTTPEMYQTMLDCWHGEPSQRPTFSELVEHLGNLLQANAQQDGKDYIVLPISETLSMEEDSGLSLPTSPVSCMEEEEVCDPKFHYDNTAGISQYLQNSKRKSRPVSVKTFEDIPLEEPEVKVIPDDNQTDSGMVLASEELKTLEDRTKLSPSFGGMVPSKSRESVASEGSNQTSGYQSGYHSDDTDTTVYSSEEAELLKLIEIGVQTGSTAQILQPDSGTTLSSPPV
T1 sequence (P22607 whole entry, change not shown): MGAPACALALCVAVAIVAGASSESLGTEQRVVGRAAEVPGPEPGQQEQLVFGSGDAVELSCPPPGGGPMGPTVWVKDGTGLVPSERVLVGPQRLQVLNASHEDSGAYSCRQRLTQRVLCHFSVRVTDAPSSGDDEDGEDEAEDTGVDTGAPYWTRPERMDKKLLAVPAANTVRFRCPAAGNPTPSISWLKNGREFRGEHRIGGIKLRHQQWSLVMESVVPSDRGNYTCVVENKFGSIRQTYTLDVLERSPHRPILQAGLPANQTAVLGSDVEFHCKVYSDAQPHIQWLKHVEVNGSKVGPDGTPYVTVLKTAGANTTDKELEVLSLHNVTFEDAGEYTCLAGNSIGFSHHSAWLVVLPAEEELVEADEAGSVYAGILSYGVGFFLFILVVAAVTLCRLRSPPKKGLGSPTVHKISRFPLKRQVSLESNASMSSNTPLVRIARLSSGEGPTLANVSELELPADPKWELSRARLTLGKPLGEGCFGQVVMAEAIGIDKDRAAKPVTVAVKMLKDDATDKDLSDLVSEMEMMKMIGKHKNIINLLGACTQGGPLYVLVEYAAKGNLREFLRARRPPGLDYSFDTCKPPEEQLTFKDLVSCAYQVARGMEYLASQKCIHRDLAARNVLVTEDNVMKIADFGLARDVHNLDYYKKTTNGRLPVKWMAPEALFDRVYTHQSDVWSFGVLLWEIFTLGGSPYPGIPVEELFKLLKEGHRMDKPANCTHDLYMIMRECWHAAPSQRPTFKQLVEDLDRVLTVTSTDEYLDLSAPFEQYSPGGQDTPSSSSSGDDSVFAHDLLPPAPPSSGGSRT
Sequence of FGFR3 (h) (P22607 23-806): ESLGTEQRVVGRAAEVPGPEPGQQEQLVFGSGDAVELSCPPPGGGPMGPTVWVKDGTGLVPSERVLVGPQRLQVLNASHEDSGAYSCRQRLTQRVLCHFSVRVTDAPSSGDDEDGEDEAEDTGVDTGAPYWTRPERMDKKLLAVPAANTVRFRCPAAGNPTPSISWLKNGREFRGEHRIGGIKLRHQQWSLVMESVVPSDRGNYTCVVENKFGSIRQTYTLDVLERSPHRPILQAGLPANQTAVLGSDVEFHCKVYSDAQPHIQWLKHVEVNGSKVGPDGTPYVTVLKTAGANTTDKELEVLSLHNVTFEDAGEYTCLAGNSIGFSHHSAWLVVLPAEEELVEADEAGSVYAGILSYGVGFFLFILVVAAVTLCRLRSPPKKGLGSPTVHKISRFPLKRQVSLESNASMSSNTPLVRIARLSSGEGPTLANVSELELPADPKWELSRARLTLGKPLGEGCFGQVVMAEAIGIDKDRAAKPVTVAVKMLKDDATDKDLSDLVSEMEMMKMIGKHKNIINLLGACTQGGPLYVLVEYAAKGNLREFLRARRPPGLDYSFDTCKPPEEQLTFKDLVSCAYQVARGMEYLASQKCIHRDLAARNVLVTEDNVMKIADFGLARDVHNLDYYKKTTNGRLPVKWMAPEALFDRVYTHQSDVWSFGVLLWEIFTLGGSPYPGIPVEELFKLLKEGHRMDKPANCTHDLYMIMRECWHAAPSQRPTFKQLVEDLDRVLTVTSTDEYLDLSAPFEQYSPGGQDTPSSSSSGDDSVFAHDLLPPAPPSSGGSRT
Sequence of Ba/F3-FGFR4-transfected cells (P22455 whole entry, change not shown): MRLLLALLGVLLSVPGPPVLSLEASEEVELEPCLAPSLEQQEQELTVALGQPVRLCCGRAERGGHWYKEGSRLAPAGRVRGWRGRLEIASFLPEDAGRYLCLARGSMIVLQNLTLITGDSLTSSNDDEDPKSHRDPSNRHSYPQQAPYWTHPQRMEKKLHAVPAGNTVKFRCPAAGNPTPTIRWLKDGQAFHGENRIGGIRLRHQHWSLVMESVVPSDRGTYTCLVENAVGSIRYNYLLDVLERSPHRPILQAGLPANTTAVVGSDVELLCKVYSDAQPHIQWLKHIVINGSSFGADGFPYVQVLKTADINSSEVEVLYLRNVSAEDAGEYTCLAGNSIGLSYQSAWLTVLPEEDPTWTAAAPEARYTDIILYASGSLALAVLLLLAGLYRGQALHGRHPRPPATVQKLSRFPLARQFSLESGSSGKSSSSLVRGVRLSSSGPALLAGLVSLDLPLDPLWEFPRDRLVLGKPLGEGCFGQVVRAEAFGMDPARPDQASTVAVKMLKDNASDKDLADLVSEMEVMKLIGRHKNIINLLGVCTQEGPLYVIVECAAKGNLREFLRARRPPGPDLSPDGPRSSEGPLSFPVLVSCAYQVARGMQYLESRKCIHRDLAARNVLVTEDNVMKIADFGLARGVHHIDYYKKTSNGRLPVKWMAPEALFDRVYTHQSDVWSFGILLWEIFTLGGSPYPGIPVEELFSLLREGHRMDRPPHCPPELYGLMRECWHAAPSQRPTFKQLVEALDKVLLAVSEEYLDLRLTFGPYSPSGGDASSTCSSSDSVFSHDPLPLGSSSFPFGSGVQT

| SMILES | IC50 [1, 12] | IC50 [2] | IC50 [3, 13] | IC50 [4, 14] | BAF3-FGFR3 (MIN IL3 Alamar Blue- pIC50) [5] | BAF3-FGFR1 (MIN IL3 pIC50) [6] | BAF3-KDR (MIN IL3 Alamar Blue pIC50) [7] | IC50 [8] | BAF3-FGFR 4 (pIC50) [9] | IC50 [10] | IC50 [11] | IC50 ([1]; FGFR 2 pIC50, 0.4 μM ATP) | IC50 ([3]; hFGFR 3 pIC50, 25 μM ATP) | IC50 ([4]; VEGFR KDR pIC50, 3 μM ATP) |
| --- | --- | --- | --- | --- | --- | --- | --- | --- | --- | --- | --- | --- | --- | --- |
| COc1cc(OC)cc(C(CCO)c2ccc3ncc(-c4cnn(C)c4)cc3c2)c1 (single isomer, unassigned) [Compound 36] | > 1e-06 M | > 1e-06 M | > 1e-06 M | > 1e-06 M |  |  |  |  |  |  |  |  |  |  |
| COc1cc(OC)cc(N(CCNC(C)C)c2ccc3ncc(-c4cnn(CCO)c4)cc3c2)c1 [Compound 13] | 6.61e-09 M | 8.71e-09 M | 4.9e-09 M | 1.29e-07 M | 7 | 7.23 | 5.57 | 2.51e-09 M | 6.81 |  |  |  |  |  |
| COc1cc(OC)cc(/C(=C\C#N)c2ccc3ncc(-c4cnn(C)c4)cc3c2)c1 [Compound 30] | 3.47e-08 M | 3.02e-07 M | 2.19e-08 M | 3.31e-07 M | 5.89 | 6.03 | 5.55 |  | 5.25 |  |  |  |  |  |
| COc1cc(OC)cc(C(=O)c2ccc3ncc(-c4cnn(C)c4)cc3c2)c1 [Compound 31] | 3.09e-08 M | 2.57e-07 M | 1.86e-08 M | 1.58e-07 M | 5.46 | 5.65 | <5 |  | 5.12 |  |  |  |  |  |
| COc1cc(OC)cc(C(CC(N)=O)c2ccc3ncc(-c4cnn(C)c4)cc3c2)c1 (centres unmarked) [Compound 40] | 3.02e-07 M |  | 2.19e-07 M | > 1e-06 M | 5.08 | <5 | <5 | 1.86e-07 M | <5 | > 10000 nM | > 10000 nM |  |  |  |
| COc1cc(OC)cc(C(CCNC(C)C)c2ccc3ncc(-c4cnn(C)c4)cc3c2)c1 (centres unmarked) [Compound 41] | 2.04e-08 M | 1.66e-07 M | 3.89e-08 M | > 1e-06 M | 6.30 | 6.43 | <5 |  | 5.78 | > 10000 nM | > 10000 nM |  |  |  |
| COc1cc(OC)cc(N(CC2CCC(=O)N2)c2ccc3ncc(-c4cnn(C)c4)cc3c2)c1 (centres unmarked) [Compound 44] | 3.24e-09 M | ~1.35e-08 M | 1.7e-09 M | 5.25e-08 M | 6.61 | 5.65 | 5.18 |  | 6.00 | > 10000 nM | > 10000 nM |  |  |  |
| COc1cc(OC)cc(N(Cc2ncc[nH]2)c2ccc3ncc(C4=CCNCC4)cc3c2)c1 [Compound 46] |  | 1.7e-08 M |  |  | 5.68 | 5.89 | <5 | 6.31e-09 M | 5.28 |  |  | 3.63e-09 M | 2.45e-09 M | 1.02e-06 M |
| COc1cc(OC)cc(N(Cc2ncc[nH]2)c2ccc3ncc(C4CCNCC4)cc3c2)c1 [Compound 48a] | 1.7e-07 M | 8.32e-07 M | 4.17e-07 M | > 1e-06 M | <5 | <5 | <5 | 2.95e-07 M | <5 | > 10000 nM | > 10000 nM |  |  |  |
| COc1cc(OC)cc(N(CCNC(C)C)c2ccc3ncc(-c4ccccc4)cc3c2)c1 [Compound 51] | 3.98e-09 M | 1.38e-08 M | 7.94e-09 M | 1.7e-07 M | 5.82 | 6.13 | 5.15 | 2.75e-09 M | 5.87 | > 10000 nM | ~6030 nM |  |  |  |
| COc1cc(OC)cc(N(Cc2ncc[nH]2)c2ccc3ncc(N4CCOCC4)cc3c2)c1 [Compound 55] | 2e-08 M | 1.32e-07 M | 2.04e-08 M | > 1e-06 M | 5.77 | 5.64 | <5 | 9.12e-08 M | 5.37 |  |  |  |  |  |
| COc1cc(OC)cc(N(Cc2ncc[nH]2)c2ccc3ncc(-c4ccn(C)c4)cc3c2)c1 [Compound 62] | 2.09e-09 M | 3.31e-09 M | 1.45e-09 M | 2.57e-07 M | 6.75 | 6.63 | <5 |  | 6.24 |  |  |  |  |  |
